# Literature values, collected in patent publication US20050009793A1, “Treatment of liver disease with active vitamin D compounds” (Novacea, Inc., priority 2002, published 2005).
# Conditions: in vivo
row,SMILES,Hypercalcemic effect compared to calcitriol
1,C=C1/C(=C/C=C2\CCC[C@]3(C)C([C@H](C)CC#CC(O)(C(F)(F)F)C(F)(F)F)=CC[C@@H]23)C[C@@H](O)C[C@@H]1O [Ro24-5531],reduced hypercalcemic effect
2,C=C1/C(=C\C=C2/CCC[C@]3(C)C([C@H](C)CC#CC(C)(C)O)=CC[C@@H]23)C[C@@H](O)C[C@@H]1O [Ro23-7553],reduced hypercalcemic effect
